Test results published in paper PMC139962 (Lipids in Health and Disease, 2002).
Where two headings read alike, the source gives them in different places.

Assays:
[1] = biological target: AEA membrane transporter (AMT); type: biochemical, human; conditions: for Ki: read-out: Ki (inhibition of AMT); for IC50: read-out: IC50 of inhibition of [3H]AEA uptake; for inhibition of [3H]AEA uptake: 100 µM
[2] = tested on: AEA membrane transporter (AMT); assay: [3H]AEA uptake by mouse brain; type: biochemical; conditions: mouse brain synaptosomes
[3] = tested on: AEA membrane transporter (AMT); assay: [3H]AEA uptake by human healthy brain; type: biochemical; conditions: for IC50: read-out: IC50 of inhibition of [3H]AEA uptake, 15 min at 37°C
[4] = tested on: AEA membrane transporter (AMT); assay: [3H]AEA uptake by rat brain; type: biochemical; conditions: rat brain synaptosomes

Q: Which Ki [1] does the source give for NC(=O)CCC(N)C(=O)O (stereo in doubt) [D-Glutamine] here?
A: 0.525 ± 0.05 µM

Q: For CCCCC/C=C\C/C=C\C/C=C\C/C=C\CCCC(=O)OC(CO)CO [2-AG, 2-arachidonoylglycerol], which “effect on accumulation of 200 nM [3H]AEA” value [1] is on record?
A: inhibited almost completely

Q: CCCCC/C=C\C/C=C\C/C=C\C/C=C\CCCC(=O)NCCO [AEA, N-arachidonoylethanolamine] was tested. Which “Q10 (ratio of AEA uptake at 30°C and 20°C)” value [1] did it give?
A: ~ 1.5

Q: What about the “Vmax of AEA uptake” value [1] of the same compound?
A: 219 ± 19 pmol/min per mg protein

Q: What about the “effect on accumulation of 200 nM [3H]AEA” value [1] of the same compound?
A: fully inhibited

Q: And the Km ([1]; read-out: apparent Km of AEA uptake)?
A: 0.793 ± 0.128 µM

Q: What about the “Vmax of AEA uptake” value [2] of the same compound?
A: 370 ± 23 pmol/min per mg protein

Q: And the Km ([2]; read-out: Km of AEA uptake)?
A: 0.66 ± 0.08 µM

Q: And the “Q10 (ratio of AEA uptake at 30°C and 20°C)” value ([3]; HB synaptosomes)?
A: ~ 1.5

Q: And the “Vmax of AEA uptake” value ([3]; human healthy brain synaptosomes, 15 min, 0-1000 nM [3H]AEA, 37°C minus 4°C)?
A: 374 ± 38 pmol/min per mg protein

Q: And the “Vmax of AEA uptake” value [4]?
A: 357 ± 18 pmol/min per mg protein

Q: And the Km ([4]; read-out: Km of AEA uptake)?
A: 0.483 ± 0.052 µM

Q: How did the IC50 [1] turn out when CCCCC/C=C\C/C=C\C/C=C\C/C=C\CCCC(=O)Nc1ccc(O)cc1 [AM404, N-(4-hydroxyphenyl)-arachidonoylamide] was run?
A: ~7 µM

Q: And the IC50 ([3]; HB synaptosomes)?
A: ~7 µM

Q: For N[C@H](CCC(=O)O)C(=O)O [D-Glutamate], which Ki [1] is on record?
A: 1.23 ± 0.11 µM

Q: Which Ki [1] does the source give for N[C@@H](CCC(=O)O)C(=O)O [L-Glutamate] here?
A: 4 ± 0.37 µM

Q: How did the Ki [1] turn out when NC(=O)CC[C@H](N)C(=O)O [L-Glutamine] was run?
A: 1.1 ± 0.09 µM

Q: With CCN1C(=O)C=CC1=O [N-ethylmaleimide] as the compound, how does the “inhibition of [3H]AEA uptake” value [1] read?
A: ~ 50%

Q: Which “inhibition of [3H]AEA uptake” value [1] does the source give for O=S(=O)(F)Cc1ccccc1 [PMSF, phenylmethylsulfonyl fluoride] here?
A: ~ 50%

Q: How did the “enhancement of [3H]AEA uptake” value [1] turn out when N=c1c[n+](N2CCOCC2)[n-]o1 [SIN-1, 3-morpholinosydnonimine] was run?
A: 180–220%

Q: Which IC50 [1] does the source give for CCCCC/C=C\C/C=C\C/C=C\C/C=C\CCCC(=O)Nc1ccc(O)cc1C [VDM11] here?
A: ~7 µM

Q: What about the IC50 ([3]; HB synaptosomes) of the same compound?
A: ~7 µM

Q: With CCCCC/C=C\C/C=C\C/C=C\C/C=C\CCCC(=O)O [arachidonic acid] as the compound, how does the “effect on accumulation of 200 nM [3H]AEA” value [1] read?
A: ineffective

Q: Which “effect on accumulation of 200 nM [3H]AEA” value [1] does the source give for NCCO [ethanolamine] here?
A: ineffective

Q: Which “inhibition of [3H]AEA uptake” value [1] does the source give for O=C(O)CI [iodoacetic acid] here?
A: ~ 50%

Q: How did the “effect on accumulation of 200 nM [3H]AEA” value [1] turn out when CCCCC/C=C\C[C@@H](O)/C=C/C=C/C=C\[C@@H](O)CCCC(=O)O [leukotriene B4] was run?
A: not affected

Q: With CCCCC[C@H](O)/C=C/[C@H]1[C@H](O)CC(=O)[C@@H]1C/C=C\CCCC(=O)O [prostaglandin E2] as the compound, how does the “effect on accumulation of 200 nM [3H]AEA” value [1] read?
A: not affected
